{
  "source": "patent US8410178B2",
  "about": "“CIS 3,4-dihydroxy-2-(3-methylbutanoyl)-5-(3-methylbutyl)-4-(4-methylpentanoyl)cyclopent-2-en-1-derivatives, substantially enantiomerically pure compositions and methods” (KinDex Therapeutics, LLC, priority 2010, dated 2013)",
  "key": {"PPARδ": {"biological_target": "T1, PPARδ (Homo sapiens, UniProt Q03181)", "T1 sequence (Q03181 1-441)": "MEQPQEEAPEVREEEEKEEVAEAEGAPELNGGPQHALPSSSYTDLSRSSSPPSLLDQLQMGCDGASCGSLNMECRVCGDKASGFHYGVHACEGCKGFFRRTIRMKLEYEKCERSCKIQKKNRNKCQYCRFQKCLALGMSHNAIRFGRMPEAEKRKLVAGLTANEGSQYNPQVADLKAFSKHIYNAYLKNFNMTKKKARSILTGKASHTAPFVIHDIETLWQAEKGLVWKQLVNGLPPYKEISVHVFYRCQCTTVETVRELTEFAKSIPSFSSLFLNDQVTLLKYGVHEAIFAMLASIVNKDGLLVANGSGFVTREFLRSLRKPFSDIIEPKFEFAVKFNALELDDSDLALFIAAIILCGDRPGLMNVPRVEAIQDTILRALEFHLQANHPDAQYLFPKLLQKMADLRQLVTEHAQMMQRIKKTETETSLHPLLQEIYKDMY", "test": "PPARδ luciferase reporter assay", "format": "cell-based", "conditions": "reporter cells, 20 hours", "protocol": "(§1) The functional effect of (+)-KDT501 on PPARα, PPARδ, and PPARγ activity was evaluated using a PPAR reporter assay (INDIGO Biosciences, PA). This assay utilizes non-human mammalian cells engineered to provide constitutive high level expression of PPARα, PPARδ, or PPARγ and containing a luciferase report gene specific to the appropriate PPAR. Following activation by agonist binding, PPAR induces expression of the luciferase reporter gene. Luciferase activity therefore provides a surrogate for measuring PPAR activity in agonist-treated cells.\n(§2) Reporter cells were plated on a 96-well plate at 100 μL per well, and 100 μL of (+)-KDT501 at various final concentrations (25, 12.5, 6.25, 3.125, 1.56 and 0.78 μM) was added to each well. […] 0.1% DMSO was also used as a negative control for each assay. Plates are incubated for 20 hours in a humidified incubator at 37° C. and 5% CO2. After incubation, cell medium was discarded and the cells were treated with 100 μL of luciferase detection reagent for 15 minutes. Plates were analyzed using a luminometer (Victor2, Perkin Elmer). Average relative light unit (RLU) and standard deviation were analyzed using GraphPad Prism."}, "PPARα": {"biological_target": "T2, PPARα (Homo sapiens, UniProt Q07869)", "T2 sequence (Q07869 1-468)": "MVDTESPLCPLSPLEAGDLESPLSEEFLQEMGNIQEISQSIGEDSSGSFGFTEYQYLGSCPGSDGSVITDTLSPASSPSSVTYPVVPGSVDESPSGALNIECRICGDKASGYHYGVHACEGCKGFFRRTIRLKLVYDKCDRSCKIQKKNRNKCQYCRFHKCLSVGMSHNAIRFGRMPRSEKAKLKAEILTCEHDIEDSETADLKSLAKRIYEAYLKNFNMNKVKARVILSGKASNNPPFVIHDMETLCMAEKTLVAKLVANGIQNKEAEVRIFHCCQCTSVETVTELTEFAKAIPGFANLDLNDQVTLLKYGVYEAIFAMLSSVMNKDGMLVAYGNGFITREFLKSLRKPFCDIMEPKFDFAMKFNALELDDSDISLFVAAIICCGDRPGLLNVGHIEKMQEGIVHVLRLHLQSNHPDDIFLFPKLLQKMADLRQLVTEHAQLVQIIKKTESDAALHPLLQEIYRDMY", "test": "PPARα luciferase reporter assay", "format": "cell-based", "conditions": "reporter cells, 20 hours", "protocol": "as §1, §2"}, "[1]": {"test_system": "rheumatoid arthritis synovial fibroblasts (RASF)", "test": "IL-1β-mediated inflammatory factors in RASFs", "format": "cell-based, Human", "conditions": "IL-1β-induced, 50, 25, 12.5, and 6.25 μM", "protocol": "The anti-inflammatory effect of (+)-KDT501 was evaluated in rheumatoid arthritis synovial fibroblasts (RASF).\nHuman RASF cells (Asterand, Detroit, Mich.) were cultured and maintained in DMEM/F12 (1:1) medium in the presence of 10% fetal bovine serum. Cells were subcultured in 24-well plates at a density of 1×10^4 cells per well and allowed to reach 70-80% confluence in two days. Confluent cells in serum-free medium at a final concentration of 0.1% DMSO were incubated for one hour with (+)-KDT501 at varying concentrations (50, 25, 12.5, and 6.25 μM), then stimulated with […] (10 ng/ml) for 20-24 hours. MMP-13 levels in the medium were measured using an ELISA kit (GE Healthcare, Piscataway, N.J.), and PGE2 levels were measured using an Immuno Assay Kit (Assay Designs, Ann Arbor, Mich.)."}, "PPARγ": {"biological_target": "T3, PPARγ (Homo sapiens, UniProt P37231)", "T3 sequence (P37231 1-505)": "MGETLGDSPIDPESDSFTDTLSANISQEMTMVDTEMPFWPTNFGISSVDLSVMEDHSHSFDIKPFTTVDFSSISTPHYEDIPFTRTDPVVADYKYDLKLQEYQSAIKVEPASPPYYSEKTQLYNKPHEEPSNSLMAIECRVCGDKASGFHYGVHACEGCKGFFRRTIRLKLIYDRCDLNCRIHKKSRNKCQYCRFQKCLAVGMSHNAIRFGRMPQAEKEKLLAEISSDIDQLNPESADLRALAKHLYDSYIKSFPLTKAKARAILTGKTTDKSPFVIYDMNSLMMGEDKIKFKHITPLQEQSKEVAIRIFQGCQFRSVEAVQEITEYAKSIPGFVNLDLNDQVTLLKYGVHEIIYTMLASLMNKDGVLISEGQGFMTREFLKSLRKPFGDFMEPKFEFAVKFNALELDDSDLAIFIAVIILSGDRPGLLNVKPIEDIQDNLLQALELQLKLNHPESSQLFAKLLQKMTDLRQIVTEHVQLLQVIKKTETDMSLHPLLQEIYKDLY", "test": "PPARγ luciferase reporter assay", "format": "cell-based", "protocol": "as §1, §2\nThe PPAR activity assays were repeated as described above using both (+)-KDT501(12.5, 6.25, 3.125, 1.56, and 0.78 μM) and (−)-KDT501 (25, 12.5, 6.25, 3.125, 1.56, and 0.78 μM)."}},
  "data": [
    {"smiles": "CC(C)CCC(=O)[C@@]1(O)C(O)=C(C(=O)CC(C)C)C(=O)[C@@H]1CCC(C)C.[K]", "note": "[(+)-KDT501, (+)-(4S,5R)-3,4-dihydroxy-2-(3-methylbutanoyl)-5-(3-methylbutyl)-4-(4-methylpentanoyl)cyclopent-2-en-1-one potassium salt]", "values": [
      {"measurement": "PPARδ activity", "setting": "PPARδ", "result": "little or no effect"},
      {"measurement": "PPARα activity", "setting": "PPARα", "result": "little or no effect"},
      {"measurement": "expression of MMP-13", "setting": "[1]", "result": "inhibited"},
      {"measurement": "expression of PGE2", "setting": "[1]", "result": "inhibited"},
      {"measurement": "Fold difference in PPARγ reporter activity", "setting": "PPARγ; (+)-KDT501 versus (−)-KDT501 at 3.13 μM", "result": 3.9},
      {"measurement": "Fold difference in PPARγ reporter activity", "setting": "PPARγ; (+)-KDT501 versus (−)-KDT501 at 6.25 μM", "result": 6.7},
      {"measurement": "Fold difference in PPARγ reporter activity", "setting": "PPARγ; (+)-KDT501 versus (−)-KDT501 at 12.5 μM", "result": 6.8},
      {"measurement": "Fold difference in PPARγ reporter activity", "setting": "PPARγ; (+)-KDT501 versus (−)-KDT501 at 25 μM", "result": 3.2},
      {"measurement": "PPARγ reporter activity (RLU)", "setting": "PPARγ; concentration of test compound 3.13 μM", "result": 2122, "unit": "RLU"},
      {"measurement": "PPARγ reporter activity (RLU)", "setting": "PPARγ; concentration of test compound 6.25 μM", "result": 6536, "unit": "RLU"},
      {"measurement": "PPARγ reporter activity (RLU)", "setting": "PPARγ; concentration of test compound 12.5 μM", "result": 16451, "unit": "RLU"},
      {"measurement": "PPARγ reporter activity (RLU)", "setting": "PPARγ; concentration of test compound 25 μM", "result": 13419, "unit": "RLU"},
      {"measurement": "PPARγ activity", "setting": "PPARγ; reporter cells, 20 hours", "result": "increased PPARγ activity in a statistically significant manner"}
    ]}
  ]
}
